The values that follow come from publication PMC9013686, “Inter-individual variation in chlorpyrifos toxicokinetics characterized by physiologically based kinetic (PBK) and Monte Carlo simulation comparing human liver microsome and Supersome™ cytochromes P450 (CYP)-specific kinetic data as model input” (Archives of Toxicology, 2022).

Series [1] concerns pooled HLMs (CYPs). Nature of the series: CYP-mediated biotransformation of CPF in pooled HLMs (literature kinetic data). The class given is in vitro ADME, human. The conditions noted are these: bioactivation of CPF. An excerpt:
(§1) As mentioned before, the in vitro apparent kinetic parameters (Vmax and Km) for pathway 1 and pathway 2 in the HLM-based approach, and pathway 3 in both approaches were all obtained directly from reported studies using pooled HLMs (Buratti et al. [2003]; Sams et al. [2004]; Zhao et al. [2019]). Therefore, no extra calculations were required to define these parameters. The kinetic parameters for the ISEF calculation, pathway 1 and 2 in the Supersome™-based approach, and pathway 4 in both approaches (25 individuals) were all obtained by fitting the experimental data to the Michaelis–Menten model using GraphPad (GraphPad Prism 5.0 software, San Diego, CA, USA). It should be noted that the kinetic parameters for pathway 4 used in the two approaches were calculated as mean of the kinetic parameters (Vmax and Km) obtained using 25 individual HP samples (with correction for total protein concentration of each plasma sample).

The subject of series [2] is RBC AChE. The conditions noted are these: ref USEPA (2014); cited from earlier work.
Series [3] concerns the target T1, CYP3A4 (Homo sapiens, UniProt P08684). The conditions noted are these: Supersome CYP3A4; bioactivation of CPF; ref Foxenberg et al. ([2007]); cited from earlier work.
For series [4], the system named is pooled HLMs (CYPs). The note with it: cited from earlier work.
Series [5] concerns the target T2, CYP1A2 (Homo sapiens, UniProt P05177).
T2 sequence (P05177 2-516 limits assumed): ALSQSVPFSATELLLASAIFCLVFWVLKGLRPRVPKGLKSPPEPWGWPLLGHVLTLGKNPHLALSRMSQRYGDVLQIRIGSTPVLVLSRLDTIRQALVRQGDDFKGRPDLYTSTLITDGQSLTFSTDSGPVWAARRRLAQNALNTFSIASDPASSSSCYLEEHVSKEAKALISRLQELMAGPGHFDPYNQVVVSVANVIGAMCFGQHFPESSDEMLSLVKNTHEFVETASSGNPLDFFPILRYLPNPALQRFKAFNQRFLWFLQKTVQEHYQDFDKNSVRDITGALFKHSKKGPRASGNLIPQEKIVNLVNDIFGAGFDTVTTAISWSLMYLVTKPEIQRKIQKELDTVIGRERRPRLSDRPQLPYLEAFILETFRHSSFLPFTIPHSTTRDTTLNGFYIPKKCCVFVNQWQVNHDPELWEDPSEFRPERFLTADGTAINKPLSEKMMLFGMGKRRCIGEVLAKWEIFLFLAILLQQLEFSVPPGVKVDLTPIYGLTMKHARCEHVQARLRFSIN
The series can be described thus: Supersome CYP1A2 kinetic incubations. The class given is in vitro ADME. Details: purchased Corning (Amsterdam, The Netherlands); host or cells: baculovirus-transfected insect cells. The conditions noted are these: for Scaled Vmax(app): CYP1A2 scaled to whole liver by Eq. 3; for Vmax (app) / Km: Supersome CYP1A2; for Km: human, recombinant CYP1A2 Supersomes, pH 7.4, Km(app). As to the method:
(§2) The final incubations were carried out in 50 mM Tris–HCl (pH 7.4) containing 5 mM MgCl2, 1 mM EDTA (as an A-esterase PON1 inhibitor) (Bizoń and Milnerowicz [2018]), 50 µM iso-OMPA (as a B-esterases inhibitor) (Lane et al. [2006]), Supersome™ isoform (at final concentration of 0.005 nmol CYP/ml for 1A2, 0.001 nmol CYP/ml for 2B6, 0.01 nmol CYP/ml for 2C19, and 0.01 nmol CYP/ml for 3A4) and CPF at different final concentrations (0.05, 0.1, 0.25, 0.5, 1, 5 and 10 µM for 1A2, 0.05, 0.1, 0.25, 0.5, 1, 5 10 and 25 µM for 2B6, 1, 2.5, 5, 10, 25 and 50 µM for 2C19, and 0.5, 1, 2.5, 5, 10, 25 and 50 µM for 3A4), which were added from 100 times concentrated stock solutions in ACN. After 1 min preincubation in a 37 °C water bath, 5 µl NADPH (final concentration 1 mM) was added to the incubation system. Control incubations were performed by replacing NADPH with the same amount of Tris–HCl (pH 7.4). The total volume of the incubation mixtures was 200 µl. The incubations lasted for 2 min at 37 °C and were terminated by addition of 50 µl ice cold ACN and subsquently put on ice. After that, samples were centrifuged at 16,000 g (4 ℃) for 5 min and supernatants of samples were separated into two equal portions for Ultra-Performance Liquid Chromatography-Photodiode Array (UPLC-PDA) and Liquid Chromatography Mass Spectrometry (LC–MS/MS) analysis, respectively.
(§3) To normalize for differences in intrinsic CYP activity between Supersome™ and pooled HLMs and enable scaling of the activities to the in vivo situation, CYP-specific ISEF values need to be established. […] The incubation method was similar as used for the CPF kinetic incubation assay described above, except that certain incubation conditions were replaced by the conditions listed in Table 1. The samples obtained were analyzed by UPLC-PDA for acetaminophen, 4-hydroxymephenytoin, and 6β-hydroxytestosterone formation catalyzed by 1A2, 2C19 and 3A4, or LC–MS/MS for (±)-hydroxybupropion formation catalyzed by 2B6.
as §1
(§4) The in vivo Kmi values were assumed to be equal to the apparent Kmi(app) values (µM) obtained in the in vitro incubations, while the in vivo Vmaxi for each CYP isoform was derived from their corresponding apparent CYP isoform Vmaxi(app) (pmol/min/pmolCYP) using Eq. 3:3 Vmaxi=Vmaxiapp×CYPiabundance×ISEF×60×MPL×1000×VL/1,000,000,

The target of series [6] is T1, CYP3A4. The series can be described thus: Supersome CYP3A4 kinetic incubations. The class given is in vitro ADME. Also on record: purchased Corning (Amsterdam, The Netherlands); host or cells: baculovirus-transfected insect cells. The note with it: for Scaled Vmax(app): CYP3A4 scaled to whole liver by Eq. 3; for Vmax (app) / Km: Supersome CYP3A4. The procedure: as §2, §3, §1, §4

The target of series [7] is CYP2C19 (Homo sapiens, UniProt P33261). The note with it: bioactivation of CPF, ref Foxenberg et al. [2007]; cited from earlier work.
The mark [8] stands for this setting: Pathway 2 (CPF to TCPy), pooled HLMs, CPF 3–100 µM, ref Sams et al. ([2004]).

Each structure is given as a SMILES string. Read-outs that look alike come from different tables or passages of the source.

T1 sequence (P08684 2-503 limits assumed): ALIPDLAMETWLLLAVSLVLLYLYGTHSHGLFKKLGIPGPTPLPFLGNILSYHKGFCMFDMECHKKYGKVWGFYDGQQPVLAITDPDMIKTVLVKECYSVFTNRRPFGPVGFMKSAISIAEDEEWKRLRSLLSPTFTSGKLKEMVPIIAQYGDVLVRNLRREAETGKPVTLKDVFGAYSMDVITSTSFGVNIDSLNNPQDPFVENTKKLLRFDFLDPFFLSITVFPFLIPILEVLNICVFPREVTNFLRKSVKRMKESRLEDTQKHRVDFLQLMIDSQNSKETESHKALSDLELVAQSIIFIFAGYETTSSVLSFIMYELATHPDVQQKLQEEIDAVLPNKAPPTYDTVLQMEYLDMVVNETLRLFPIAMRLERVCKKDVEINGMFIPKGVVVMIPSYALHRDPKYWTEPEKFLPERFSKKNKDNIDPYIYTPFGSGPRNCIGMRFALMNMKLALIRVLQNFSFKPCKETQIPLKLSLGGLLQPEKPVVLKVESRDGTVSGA
Sequence of CYP2C19 (P33261 whole entry): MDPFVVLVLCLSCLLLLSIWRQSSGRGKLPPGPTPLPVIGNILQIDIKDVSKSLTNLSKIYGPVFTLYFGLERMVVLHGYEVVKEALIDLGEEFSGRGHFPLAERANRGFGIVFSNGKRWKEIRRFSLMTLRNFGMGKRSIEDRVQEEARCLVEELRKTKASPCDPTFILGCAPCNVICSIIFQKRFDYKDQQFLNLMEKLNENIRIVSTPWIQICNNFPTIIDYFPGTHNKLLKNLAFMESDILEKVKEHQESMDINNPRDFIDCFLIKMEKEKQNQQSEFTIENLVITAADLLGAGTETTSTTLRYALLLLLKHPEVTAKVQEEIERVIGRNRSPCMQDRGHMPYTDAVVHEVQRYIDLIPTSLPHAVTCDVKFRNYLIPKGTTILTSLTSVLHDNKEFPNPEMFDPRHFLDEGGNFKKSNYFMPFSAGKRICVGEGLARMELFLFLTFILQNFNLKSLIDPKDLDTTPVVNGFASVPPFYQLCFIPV

One may read the Km as the concentration of substrate that gives half-maximal velocity. Turning to `CCOP(=S)(OCC)Oc1nc(Cl)c(Cl)cc1Cl` [CPF, Chlorpyrifos], the “CE of pooled HLM, biphasic kinetics” value in series [1] (high and low affinity phase included) came out at 3600 L/h. The “CE of pooled HLM, high affinity phase excluded” value in series [1] (non-biphasic) amounted to 41 L/h. Also, the “BMDL10 (EPA, derived from human PBPK-PD model)” value in series [2] was 0.47 mg/kg bw. Also, the Km in series [3] is 27.3 µM; in series [4] (setting [8]) it was 12 µM; in series [4] (read-out: Km (high affinity), Pathway 1 (CPF to CPO), pooled HLMs, CPF 0.02–10 µM, ref Buratti et al. ([2003])), 0.27 µM; in series [4] (read-out: Km (low affinity), apparent Km in pooled HLMs, Pathway 1 (CPF to CPO), CPF 3–100 µM, ref Sams et al. ([2004])), 29.8 µM; in series [5] (Pathway 1 (bioactivation of CPF to CPO)) it was 0.61 µM; in series [5] (Pathway 2 (detoxification of CPF to TCPy)), 1.25 µM. Also, the Km was 29.8 µM in series [6] (human, recombinant CYP3A4 Supersomes, pH 7.4, Km(app), Pathway 1 (bioactivation of CPF to CPO)); 18.1 µM in series [6] (human, recombinant CYP3A4 Supersomes, pH 7.4, Km(app), Pathway 2 (detoxification of CPF to TCPy)); 29.8 µM in series [6] (read-out: Km(app), Pathway 1 (bioactivation of CPF to CPO)); 1.23 µM in series [7]. For the same compound, the “Vmax (high affinity)” value in series [4] (Pathway 1 (CPF to CPO), pooled HLMs, CPF 0.02–10 µM, ref Buratti et al. ([2003])) is 0.275 nmol/min/mg microsomal protein. Also, the “Vmax (low affinity)” value in series [4] (Pathway 1 (CPF to CPO), pooled HLMs, CPF 3–100 µM, ref Sams et al. ([2004])) is on record as 0.353 nmol/min/mg microsomal protein. In addition, the Vmax in series [4] (setting [8]) is given as 0.653 nmol/min/mg microsomal protein. The “Scaled Vmax(app)” value in series [5] (Pathway 1 (CPF to CPO)) came to 51.81 µmol/h; in series [5] (Pathway 2 (CPF to TCPy)), 38.73 µmol/h; in series [6] (Pathway 1 (CPF to CPO)) it was 910.77 µmol/h; in series [6] (Pathway 2 (CPF to TCPy)) it was 1222.21 µmol/h. Besides, the “Vmax (app)” value in series [5] (Pathway 1 (CPF to CPO)) was determined as 3.96 pmol/min/pmolCYP; in series [5] (Pathway 2 (CPF to TCPy)), 2.96 pmol/min/pmolCYP; in series [6] (Pathway 1 (CPF to CPO)) it was 17.78 pmol/min/pmolCYP; in series [6] (Pathway 2 (CPF to TCPy)), 23.86 pmol/min/pmolCYP.
